Data from PubChem BioAssay (NCI).
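Where inhibition never reached the appropriate level, the endpoint shown equals the highest concentration tested. Otherwise, values were interpolated linearly from a five-concentration, 48-hour dose response in 96-well plates. At the GI50, growth is halved. TGI: total growth inhibition.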

What was measured:
Assay in all cases: DTP human tumour cell line panel, 48 h
SK-OV-3 ovarian = tested on: SK-OV-3 ovarian
RXF 393 renal = tested on: RXF 393 renal
IGROV1 ovarian = tested on: IGROV1 ovarian
KM12 colon = tested on: KM12 colon
SF-539 CNS = tested on: SF-539 CNS
NCI/ADR-RES ovarian = tested on: NCI/ADR-RES ovarian
SK-MEL-28 melanoma = tested on: SK-MEL-28 melanoma
NCI-H522 lung = tested on: NCI-H522 lung
SF-295 CNS = tested on: SF-295 CNS
A549 NSCLC = tested on: A549 NSCLC
HCC-2998 colon = tested on: HCC-2998 colon
DU-145 prostate = tested on: DU-145 prostate
OVCAR-5 ovarian = tested on: OVCAR-5 ovarian
HCT-116 colon = tested on: HCT-116 colon
MALME-3M melanoma = tested on: MALME-3M melanoma
EKVX NSCLC = tested on: EKVX NSCLC
NCI-H23 lung = tested on: NCI-H23 lung
OVCAR-4 ovarian = tested on: OVCAR-4 ovarian
CCRF-CEM leukemia = tested on: CCRF-CEM leukemia
LOX IMVI melanoma = tested on: LOX IMVI melanoma
NCI-H226 lung = tested on: NCI-H226 lung
OVCAR-8 ovarian = tested on: OVCAR-8 ovarian
UACC-62 melanoma = tested on: UACC-62 melanoma
MOLT-4 leukemia = tested on: MOLT-4 leukemia
HL-60(TB) leukemia = tested on: HL-60(TB) leukemia
SNB-75 CNS = tested on: SNB-75 CNS
SW-620 colon = tested on: SW-620 colon
PC-3 prostate = tested on: PC-3 prostate
SN12C renal = tested on: SN12C renal
NCI-H460 lung = tested on: NCI-H460 lung
SR leukemia = tested on: SR leukemia
MDA-MB-435 = tested on: MDA-MB-435
RPMI-8226 leukemia = tested on: RPMI-8226 leukemia
OVCAR-3 ovarian = tested on: OVCAR-3 ovarian
HOP-62 NSCLC = tested on: HOP-62 NSCLC
MDA-MB-231 breast = tested on: MDA-MB-231 breast
A498 renal = tested on: A498 renal
TK-10 renal = tested on: TK-10 renal
COLO 205 colon = tested on: COLO 205 colon
U251 CNS = tested on: U251 CNS
HOP-92 NSCLC = tested on: HOP-92 NSCLC
SF-268 CNS = tested on: SF-268 CNS
786-0 renal = tested on: 786-0 renal
HS 578T breast = tested on: HS 578T breast
ACHN renal = tested on: ACHN renal
UO-31 renal = tested on: UO-31 renal
MCF7 breast = tested on: MCF7 breast
SK-MEL-2 melanoma = tested on: SK-MEL-2 melanoma
BT-549 breast = tested on: BT-549 breast
SNB-19 CNS = tested on: SNB-19 CNS
T-47D breast = tested on: T-47D breast
CAKI-1 renal = tested on: CAKI-1 renal
HT29 colon = tested on: HT29 colon
HCT-15 colon = tested on: HCT-15 colon
K-562 leukemia = tested on: K-562 leukemia
M14 melanoma = tested on: M14 melanoma
SK-MEL-5 melanoma = tested on: SK-MEL-5 melanoma

## COC(=O)C1=C(C)NC(C)=C(C(=O)OC)C1c1ccccc1[N+](=O)[O-]
SK-OV-3 ovarian
  GI50: > 100000 nM
  TGI: > 100000 nM
RXF 393 renal
  GI50: 36 µM
  TGI: > 100000 nM
IGROV1 ovarian
  GI50: 57.2 µM
  TGI: > 100000 nM
KM12 colon
  GI50: > 100000 nM
  TGI: > 100 µM
SF-539 CNS
  GI50: > 100000 nM
  TGI: > 100000 nM
NCI/ADR-RES ovarian
  GI50: 49.3 µM
  TGI: > 100 µM
SK-MEL-28 melanoma
  GI50: > 100000 nM
  TGI: > 100000 nM
NCI-H522 lung
  GI50: > 100000 nM
  TGI: > 100000 nM
SF-295 CNS
  GI50: 57.8 µM
  TGI: > 100000 nM
A549 NSCLC
  GI50: > 100000 nM
  TGI: > 100000 nM
HCC-2998 colon
  GI50: > 100000 nM
  TGI: > 100000 nM
DU-145 prostate
  GI50: > 100000 nM
  TGI: > 100000 nM
OVCAR-5 ovarian
  GI50: > 100000 nM
  TGI: > 100000 nM
HCT-116 colon
  GI50: > 100000 nM
  TGI: > 100000 nM
MALME-3M melanoma
  GI50: > 100000 nM
  TGI: > 100000 nM
EKVX NSCLC
  GI50: 64.3 µM
  TGI: > 100000 nM
NCI-H23 lung
  GI50: > 100000 nM
  TGI: > 100000 nM
OVCAR-4 ovarian
  GI50: 61.9 µM
  TGI: > 100000 nM
CCRF-CEM leukemia
  GI50: > 100000 nM
  TGI: > 100 µM
LOX IMVI melanoma
  GI50: > 100000 nM
  TGI: > 100000 nM
NCI-H226 lung
  GI50: 87.6 µM
  TGI: > 100000 nM
OVCAR-8 ovarian
  GI50: 64.8 µM
  TGI: > 100000 nM
UACC-62 melanoma
  GI50: 29.6 µM
  TGI: > 100000 nM
MOLT-4 leukemia
  GI50: 78.2 µM
  TGI: > 100 µM
HL-60(TB) leukemia
  GI50: 31.7 µM
  TGI: > 100000 nM
SNB-75 CNS
  GI50: 27 µM
  TGI: > 100000 nM
SW-620 colon
  GI50: > 100000 nM
  TGI: > 100 µM
PC-3 prostate
  GI50: 50.3 µM
  TGI: > 100000 nM
SN12C renal
  GI50: 82.2 µM
  TGI: > 100000 nM
NCI-H460 lung
  GI50: 97.6 µM
  TGI: > 100000 nM
SR leukemia
  GI50: 34.7 µM
  TGI: > 100 µM
MDA-MB-435
  GI50: > 100000 nM
  TGI: > 100000 nM
RPMI-8226 leukemia
  GI50: 47.6 µM
  TGI: > 100000 nM
OVCAR-3 ovarian
  GI50: 93.2 µM
  TGI: > 100000 nM
HOP-62 NSCLC
  GI50: > 100000 nM
  TGI: > 100000 nM
MDA-MB-231 breast
  GI50: 70.7 µM
  TGI: > 100000 nM
A498 renal
  GI50: 11.3 µM
  TGI: 56.3 µM
TK-10 renal
  GI50: > 100000 nM
  TGI: > 100000 nM
COLO 205 colon
  GI50: 89 µM
  TGI: > 100000 nM
U251 CNS
  GI50: > 100000 nM
  TGI: > 100000 nM
HOP-92 NSCLC
  GI50: 23.3 µM
  TGI: > 100000 nM
SF-268 CNS
  GI50: > 100000 nM
  TGI: > 100000 nM
786-0 renal
  GI50: > 100000 nM
  TGI: > 100000 nM
HS 578T breast
  GI50: 32.4 µM
  TGI: > 100000 nM
ACHN renal
  GI50: 76.9 µM
  TGI: > 100000 nM
UO-31 renal
  GI50: 50 µM
  TGI: > 100000 nM
MCF7 breast
  GI50: > 100000 nM
  TGI: > 100 µM
SK-MEL-2 melanoma
  GI50: > 100000 nM
  TGI: > 100000 nM
BT-549 breast
  GI50: > 100000 nM
  TGI: > 100000 nM
SNB-19 CNS
  GI50: > 100000 nM
  TGI: > 100000 nM
T-47D breast
  GI50: 50.9 µM
  TGI: > 100000 nM
CAKI-1 renal
  GI50: 38.8 µM
  TGI: > 100 µM
HT29 colon
  GI50: > 100000 nM
  TGI: > 100000 nM
HCT-15 colon
  GI50: 65.8 µM
  TGI: > 100 µM
K-562 leukemia
  GI50: 78.8 µM
  TGI: > 100 µM
M14 melanoma
  GI50: > 100000 nM
  TGI: > 100000 nM

## CO[C@H]1/C=C/C=C/C=C/C[C@H](OC(=O)[C@@H](C)NC(=O)C2CCCCC2)[C@H](C)[C@@H](O)/C(C)=C\CCC2=CC(=O)C=C(NC(=O)C1)C2=O
SK-OV-3 ovarian
  GI50: 187 nM
  TGI: 1830 nM
RXF 393 renal
  GI50: 0.0945 µM
  TGI: 346 nM
IGROV1 ovarian
  GI50: 0.0941 µM
  TGI: 1280 nM
KM12 colon
  GI50: 131 nM
  TGI: 10.1 µM
SF-539 CNS
  GI50: 128 nM
  TGI: 519 nM
NCI/ADR-RES ovarian
  GI50: 4 µM
  TGI: > 50 µM
SK-MEL-28 melanoma
  GI50: 102 nM
  TGI: 490 nM
NCI-H522 lung
  GI50: 104 nM
  TGI: 823 nM
SF-295 CNS
  GI50: 0.124 µM
  TGI: 966 nM
A549 NSCLC
  GI50: 188 nM
  TGI: 1920 nM
HCC-2998 colon
  GI50: 109 nM
  TGI: 762 nM
DU-145 prostate
  GI50: 127 nM
  TGI: 1400 nM
OVCAR-5 ovarian
  GI50: 324 nM
  TGI: 2890 nM
HCT-116 colon
  GI50: 47.2 nM
  TGI: 738 nM
MALME-3M melanoma
  GI50: 113 nM
  TGI: 801 nM
EKVX NSCLC
  GI50: 0.174 µM
  TGI: 2250 nM
NCI-H23 lung
  GI50: 115 nM
  TGI: 812 nM
OVCAR-4 ovarian
  GI50: 0.225 µM
  TGI: 2840 nM
CCRF-CEM leukemia
  GI50: 114 nM
  TGI: > 50 µM
LOX IMVI melanoma
  GI50: 104 nM
  TGI: 547 nM
NCI-H226 lung
  GI50: 0.157 µM
  TGI: 797 nM
OVCAR-8 ovarian
  GI50: 0.194 µM
  TGI: 1570 nM
UACC-62 melanoma
  GI50: 0.0801 µM
  TGI: 682 nM
MOLT-4 leukemia
  GI50: 0.142 µM
  TGI: 7.04 µM
HL-60(TB) leukemia
  GI50: 0.167 µM
  TGI: 839 nM
SNB-75 CNS
  GI50: 0.0832 µM
  TGI: 1700 nM
SW-620 colon
  GI50: 179 nM
  TGI: 3.63 µM
PC-3 prostate
  GI50: 0.128 µM
  TGI: 896 nM
SN12C renal
  GI50: 0.106 µM
  TGI: 556 nM
NCI-H460 lung
  GI50: 0.111 µM
  TGI: 1140 nM
SR leukemia
  GI50: 0.0561 µM
  TGI: > 50 µM
MDA-MB-435
  GI50: 154 nM
  TGI: 989 nM
RPMI-8226 leukemia
  GI50: 0.111 µM
  TGI: 327 nM
OVCAR-3 ovarian
  GI50: 0.154 µM
  TGI: 997 nM
HOP-62 NSCLC
  GI50: 125 nM
  TGI: 680 nM
MDA-MB-231 breast
  GI50: 0.137 µM
  TGI: 934 nM
A498 renal
  GI50: 0.282 µM
  TGI: 2.33 µM
TK-10 renal
  GI50: 274 nM
  TGI: 2310 nM
COLO 205 colon
  GI50: 0.116 µM
  TGI: 736 nM
U251 CNS
  GI50: 98.5 nM
  TGI: 953 nM
HOP-92 NSCLC
  GI50: 0.162 µM
  TGI: 1980 nM
SF-268 CNS
  GI50: 123 nM
  TGI: 1010 nM
786-0 renal
  GI50: 177 nM
  TGI: 1320 nM
HS 578T breast
  GI50: 0.119 µM
  TGI: 590 nM
ACHN renal
  GI50: 0.223 µM
  TGI: 1310 nM
UO-31 renal
  GI50: 0.352 µM
  TGI: 2790 nM
MCF7 breast
  GI50: 130 nM
  TGI: 3.54 µM
SK-MEL-2 melanoma
  GI50: 131 nM
  TGI: 715 nM
BT-549 breast
  GI50: 172 nM
  TGI: 1380 nM
SNB-19 CNS
  GI50: 106 nM
  TGI: 563 nM
T-47D breast
  GI50: 0.105 µM
  TGI: 1060 nM
HT29 colon
  GI50: 80.1 nM
  TGI: 513 nM
HCT-15 colon
  GI50: 0.336 µM
  TGI: 5.57 µM
SK-MEL-5 melanoma
  GI50: 84.5 nM
  TGI: 521 nM
K-562 leukemia
  GI50: 0.177 µM
  TGI: > 50 µM
M14 melanoma
  GI50: 119 nM
  TGI: 746 nM
